Assay results: patent US11208412B2 (DAEGU-GYEONGBUK MEDICAL INNOVATION FOUNDATION, priority 2017, dated 2021)

Legend:
Test in all cases: Kinase selectivity, DiscoverX scanMAX Kinase assay panel (% control)
Assay type in all cases: binding
[1] = biological target: T1, kinases of the scanMAX Kinase assay panel (Homo sapiens, UniProt O76039); conditions: CDKL5; 1 uM
T1 construct: purchased DiscoverX Co. (contract measurement) scanMAX Kinase assay panel
T1 sequence (O76039 1-960): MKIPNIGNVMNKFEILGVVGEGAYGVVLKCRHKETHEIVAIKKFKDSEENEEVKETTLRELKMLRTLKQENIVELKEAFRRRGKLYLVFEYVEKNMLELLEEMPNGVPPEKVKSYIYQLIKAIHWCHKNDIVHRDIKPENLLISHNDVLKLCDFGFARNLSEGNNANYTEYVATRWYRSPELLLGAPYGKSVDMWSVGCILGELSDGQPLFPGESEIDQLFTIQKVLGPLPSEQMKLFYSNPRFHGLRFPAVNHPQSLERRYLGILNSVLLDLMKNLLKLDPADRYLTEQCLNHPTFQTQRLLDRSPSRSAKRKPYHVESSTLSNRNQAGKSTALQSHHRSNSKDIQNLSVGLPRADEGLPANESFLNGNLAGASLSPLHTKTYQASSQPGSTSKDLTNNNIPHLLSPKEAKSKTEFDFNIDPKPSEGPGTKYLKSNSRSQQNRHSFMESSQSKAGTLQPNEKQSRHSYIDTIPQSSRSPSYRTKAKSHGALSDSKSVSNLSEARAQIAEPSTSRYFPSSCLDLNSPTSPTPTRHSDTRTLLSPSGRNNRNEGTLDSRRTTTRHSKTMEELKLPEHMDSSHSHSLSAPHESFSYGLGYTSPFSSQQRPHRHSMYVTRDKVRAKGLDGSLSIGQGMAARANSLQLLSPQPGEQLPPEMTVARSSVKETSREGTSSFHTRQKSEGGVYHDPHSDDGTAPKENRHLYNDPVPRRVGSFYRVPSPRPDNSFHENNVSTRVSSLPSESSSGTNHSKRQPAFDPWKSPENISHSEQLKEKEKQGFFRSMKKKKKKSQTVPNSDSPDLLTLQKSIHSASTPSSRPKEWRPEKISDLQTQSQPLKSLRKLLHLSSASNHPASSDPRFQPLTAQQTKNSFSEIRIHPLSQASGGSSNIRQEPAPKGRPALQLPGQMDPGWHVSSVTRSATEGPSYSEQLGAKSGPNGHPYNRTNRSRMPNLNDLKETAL
Method in brief: (§1)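 Percent of control computed as (compound − positive control)/(negative control − positive control) × 100, DMSO defining 100% and positive control 0%. Each panel kinase exposed to 1 uM compound; values under 35% taken to mean the compound acts on that kinase.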

[2] = biological target: T2, kinases of the scanMAX Kinase assay panel (Homo sapiens, UniProt P49674); conditions: CSNK1E; 1 uM
T2 construct: purchased DiscoverX Co. (contract measurement) scanMAX Kinase assay panel
T2 sequence (P49674 whole entry): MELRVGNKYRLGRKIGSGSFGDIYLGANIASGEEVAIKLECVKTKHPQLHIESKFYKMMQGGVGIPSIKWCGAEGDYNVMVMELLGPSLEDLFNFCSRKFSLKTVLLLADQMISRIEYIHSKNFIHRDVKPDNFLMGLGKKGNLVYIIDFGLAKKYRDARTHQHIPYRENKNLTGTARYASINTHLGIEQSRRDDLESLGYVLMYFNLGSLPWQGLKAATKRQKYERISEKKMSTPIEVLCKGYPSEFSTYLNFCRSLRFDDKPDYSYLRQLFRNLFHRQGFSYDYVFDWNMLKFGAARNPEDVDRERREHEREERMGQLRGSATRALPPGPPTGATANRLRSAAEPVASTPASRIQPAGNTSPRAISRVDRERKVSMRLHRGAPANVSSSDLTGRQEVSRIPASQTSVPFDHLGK
Method in brief: as §1

[3] = biological target: T3, kinases of the scanMAX Kinase assay panel (Homo sapiens, UniProt Q13976); conditions: PRKG1; 1 uM
T3 construct: purchased DiscoverX Co. (contract measurement) scanMAX Kinase assay panel
T3 sequence (Q13976 1-671): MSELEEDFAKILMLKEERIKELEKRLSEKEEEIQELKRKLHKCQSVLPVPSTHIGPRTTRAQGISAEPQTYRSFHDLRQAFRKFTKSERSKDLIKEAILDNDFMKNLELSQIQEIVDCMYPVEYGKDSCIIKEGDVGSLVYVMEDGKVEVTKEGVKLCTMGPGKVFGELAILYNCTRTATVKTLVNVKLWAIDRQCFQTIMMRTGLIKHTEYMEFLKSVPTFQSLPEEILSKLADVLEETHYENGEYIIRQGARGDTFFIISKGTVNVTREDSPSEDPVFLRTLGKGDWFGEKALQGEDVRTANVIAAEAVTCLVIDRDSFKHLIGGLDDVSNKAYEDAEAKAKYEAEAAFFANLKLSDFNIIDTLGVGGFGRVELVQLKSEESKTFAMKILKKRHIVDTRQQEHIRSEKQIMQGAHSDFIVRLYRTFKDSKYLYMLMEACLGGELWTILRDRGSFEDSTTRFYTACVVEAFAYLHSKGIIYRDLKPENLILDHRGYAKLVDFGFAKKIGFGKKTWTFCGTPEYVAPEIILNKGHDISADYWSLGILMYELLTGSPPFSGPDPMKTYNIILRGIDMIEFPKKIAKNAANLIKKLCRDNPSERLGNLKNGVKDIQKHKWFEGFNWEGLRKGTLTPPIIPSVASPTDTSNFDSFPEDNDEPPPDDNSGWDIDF
Method in brief: as §1

[4] = biological target: T4, kinases of the scanMAX Kinase assay panel (Homo sapiens, UniProt Q99640); conditions: PKMYT1; 1 uM
T4 construct: purchased DiscoverX Co. (contract measurement) scanMAX Kinase assay panel
T4 sequence (Q99640 1-499): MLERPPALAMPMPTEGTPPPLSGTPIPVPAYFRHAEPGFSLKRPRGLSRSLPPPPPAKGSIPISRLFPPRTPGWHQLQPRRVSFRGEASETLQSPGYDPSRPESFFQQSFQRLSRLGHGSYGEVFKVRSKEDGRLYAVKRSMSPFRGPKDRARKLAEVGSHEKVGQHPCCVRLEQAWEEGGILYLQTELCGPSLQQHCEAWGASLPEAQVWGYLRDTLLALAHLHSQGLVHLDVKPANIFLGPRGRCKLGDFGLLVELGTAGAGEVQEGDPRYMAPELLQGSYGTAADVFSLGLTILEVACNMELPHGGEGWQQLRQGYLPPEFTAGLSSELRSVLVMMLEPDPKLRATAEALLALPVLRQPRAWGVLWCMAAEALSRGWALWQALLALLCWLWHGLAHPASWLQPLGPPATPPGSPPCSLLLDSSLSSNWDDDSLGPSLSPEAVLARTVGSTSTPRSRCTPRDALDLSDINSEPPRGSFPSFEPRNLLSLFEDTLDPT
Method in brief: as §1

SMILES	remaining binding at 1 µM [1] [%]	remaining binding at 1 µM [2] [%]	remaining binding at 1 µM [3] [%]	remaining binding at 1 µM [4] [%]
CC1(Nc2nc(Nc3cnn([C@H]4CCN(C5COC5)C[C@@H]4F)c3Cl)nc3[nH]cc(C#N)c23)CC1 [Example 52, 2-((5-chloro-1-((3S,4S)-3-fluoro-1-(oxetane-3-yl)piperidine-4-yl)-1H-pyrazole-4-yl)amino)((1-methylcyclopropyl)amino)-7H-pyrrolo[2,3-d]pyrimidine-5-carbonitrile]	100	0.15	79	89
CNc1nc(Nc2ccc(C(=O)N3CCOCC3)cc2OC)nc2[nH]cc(C#N)c12 [Example 1, 2-((2-methoxy-4-(morpholine-4-carbonyl)phenyl)amino)-4-(methylamino)-7H-pyrrolo[2,3-d]pyrimidine-5-carbonitrile]	76	12	83	99
CCNc1nc(Nc2ccc(C(=O)N3CCC(N4CCOCC4)CC3)cc2OC)nc2[nH]cc(C(F)(F)F)c12 [Example 104, (4-((4-(ethylamino)-5-(trifluoromethyl)-7H-pyrrolo[2,3-d]pyrimidine-2-yl)amino)-3-methoxyphenyl)(4-morpholinopiperidine-1-yl)methanone]	100	4.2	84	100
